For 13 molecules, Kd results are on record in ChEMBL document CHEMBL3991601, “The target landscape of clinical kinase drugs” (Science, 2017).

Activity calls are given as the source filed them. Rule as the data show it, for most assays here: actives have a measured Kd and inactives only a lower limit. Where only a bound is given, the exact number is not on record here.

For one experiment, the target named is Actin-related protein 2 (Homo sapiens, UniProt P61160).
For experiment [1], the target named is T1, Dual specificity mitogen-activated protein kinase kinase 5 (Homo sapiens, UniProt Q13163).
T1 sequence (Q13163 whole entry): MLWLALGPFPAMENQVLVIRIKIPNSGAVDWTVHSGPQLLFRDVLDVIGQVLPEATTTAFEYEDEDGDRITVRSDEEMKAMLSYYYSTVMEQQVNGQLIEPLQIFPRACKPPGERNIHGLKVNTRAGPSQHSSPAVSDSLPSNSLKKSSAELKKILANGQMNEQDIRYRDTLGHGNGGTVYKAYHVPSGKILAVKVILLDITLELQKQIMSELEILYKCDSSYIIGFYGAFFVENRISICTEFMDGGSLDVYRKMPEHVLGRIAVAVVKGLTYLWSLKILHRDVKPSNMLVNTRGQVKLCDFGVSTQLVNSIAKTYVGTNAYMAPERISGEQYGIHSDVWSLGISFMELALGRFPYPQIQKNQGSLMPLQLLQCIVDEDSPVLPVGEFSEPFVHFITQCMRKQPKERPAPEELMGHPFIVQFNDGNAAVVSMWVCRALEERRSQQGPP

Another experiment concerns the target T2, Ephrin type-B receptor 6 (Homo sapiens, UniProt O15197).
T2 sequence (O15197 whole entry): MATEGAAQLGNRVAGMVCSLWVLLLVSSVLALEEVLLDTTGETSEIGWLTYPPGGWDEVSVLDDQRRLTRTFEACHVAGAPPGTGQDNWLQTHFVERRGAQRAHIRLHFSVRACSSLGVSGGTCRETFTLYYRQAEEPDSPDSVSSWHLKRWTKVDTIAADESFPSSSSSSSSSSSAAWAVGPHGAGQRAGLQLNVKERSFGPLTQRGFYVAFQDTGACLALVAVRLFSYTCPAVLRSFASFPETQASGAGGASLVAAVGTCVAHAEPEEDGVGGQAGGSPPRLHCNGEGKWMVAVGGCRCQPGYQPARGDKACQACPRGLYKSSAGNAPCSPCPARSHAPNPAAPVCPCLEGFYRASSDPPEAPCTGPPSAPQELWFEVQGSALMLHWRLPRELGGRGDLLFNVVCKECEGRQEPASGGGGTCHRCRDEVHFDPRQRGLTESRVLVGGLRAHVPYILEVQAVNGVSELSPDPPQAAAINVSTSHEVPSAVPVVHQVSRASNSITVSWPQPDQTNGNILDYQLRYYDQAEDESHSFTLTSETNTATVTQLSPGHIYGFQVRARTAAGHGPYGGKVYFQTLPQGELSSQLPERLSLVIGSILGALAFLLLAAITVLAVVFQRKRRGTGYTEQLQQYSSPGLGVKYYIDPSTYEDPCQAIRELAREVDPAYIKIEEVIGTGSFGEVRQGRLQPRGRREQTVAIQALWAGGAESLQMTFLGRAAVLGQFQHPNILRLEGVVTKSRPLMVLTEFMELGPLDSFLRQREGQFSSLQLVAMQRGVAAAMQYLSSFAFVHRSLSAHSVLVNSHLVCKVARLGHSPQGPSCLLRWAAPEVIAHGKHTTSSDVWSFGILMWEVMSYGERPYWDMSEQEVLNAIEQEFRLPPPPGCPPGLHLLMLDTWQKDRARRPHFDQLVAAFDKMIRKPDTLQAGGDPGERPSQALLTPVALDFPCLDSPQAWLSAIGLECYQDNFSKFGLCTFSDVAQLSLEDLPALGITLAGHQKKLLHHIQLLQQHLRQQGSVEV

Experiment [2] has as its target T3, Dual specificity mitogen-activated protein kinase kinase 3 (Homo sapiens, UniProt P46734).
T3 sequence (P46734 whole entry): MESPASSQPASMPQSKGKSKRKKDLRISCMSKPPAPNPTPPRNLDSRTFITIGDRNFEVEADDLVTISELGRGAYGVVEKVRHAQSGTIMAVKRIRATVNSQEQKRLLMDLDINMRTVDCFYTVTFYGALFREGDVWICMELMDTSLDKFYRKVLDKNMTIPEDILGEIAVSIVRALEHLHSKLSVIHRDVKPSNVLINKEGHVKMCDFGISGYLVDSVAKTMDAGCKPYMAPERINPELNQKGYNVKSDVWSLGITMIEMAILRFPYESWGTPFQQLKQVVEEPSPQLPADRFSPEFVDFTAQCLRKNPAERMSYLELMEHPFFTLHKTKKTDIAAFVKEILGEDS

Experiment [3] has as its target T4, Exosome RNA helicase MTR4 (Homo sapiens, UniProt P42285).
T4 sequence (P42285 whole entry): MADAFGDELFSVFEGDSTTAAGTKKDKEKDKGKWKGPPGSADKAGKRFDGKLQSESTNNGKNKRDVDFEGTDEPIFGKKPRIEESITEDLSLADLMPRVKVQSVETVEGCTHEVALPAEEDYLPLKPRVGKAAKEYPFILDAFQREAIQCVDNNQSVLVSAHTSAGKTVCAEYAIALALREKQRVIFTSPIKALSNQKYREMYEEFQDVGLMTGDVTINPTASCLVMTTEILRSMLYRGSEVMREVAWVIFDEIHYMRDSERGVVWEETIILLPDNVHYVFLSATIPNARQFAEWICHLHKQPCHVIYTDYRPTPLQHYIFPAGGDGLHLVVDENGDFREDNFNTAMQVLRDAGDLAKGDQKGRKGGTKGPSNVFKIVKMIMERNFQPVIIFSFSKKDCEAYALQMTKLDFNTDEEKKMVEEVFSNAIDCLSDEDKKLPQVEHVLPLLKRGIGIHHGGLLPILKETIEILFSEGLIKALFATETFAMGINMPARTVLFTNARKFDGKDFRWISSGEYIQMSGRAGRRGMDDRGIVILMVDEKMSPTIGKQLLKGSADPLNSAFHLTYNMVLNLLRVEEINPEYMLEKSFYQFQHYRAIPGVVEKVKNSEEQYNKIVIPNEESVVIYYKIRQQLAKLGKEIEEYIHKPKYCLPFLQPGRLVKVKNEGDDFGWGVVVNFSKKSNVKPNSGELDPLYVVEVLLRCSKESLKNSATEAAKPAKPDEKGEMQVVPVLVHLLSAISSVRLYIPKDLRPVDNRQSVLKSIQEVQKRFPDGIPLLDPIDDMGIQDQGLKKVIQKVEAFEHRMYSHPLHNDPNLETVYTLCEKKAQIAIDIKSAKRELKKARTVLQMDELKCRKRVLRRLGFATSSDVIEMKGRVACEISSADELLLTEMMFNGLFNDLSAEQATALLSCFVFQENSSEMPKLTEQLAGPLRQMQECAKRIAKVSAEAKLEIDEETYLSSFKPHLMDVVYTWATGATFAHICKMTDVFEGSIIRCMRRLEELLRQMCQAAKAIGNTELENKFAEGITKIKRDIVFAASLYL

The next experiment deals with LIM domain kinase 2 (Homo sapiens, UniProt P53671).
LIM domain kinase 2, sequence (P53671 whole entry, the tested form may be a part): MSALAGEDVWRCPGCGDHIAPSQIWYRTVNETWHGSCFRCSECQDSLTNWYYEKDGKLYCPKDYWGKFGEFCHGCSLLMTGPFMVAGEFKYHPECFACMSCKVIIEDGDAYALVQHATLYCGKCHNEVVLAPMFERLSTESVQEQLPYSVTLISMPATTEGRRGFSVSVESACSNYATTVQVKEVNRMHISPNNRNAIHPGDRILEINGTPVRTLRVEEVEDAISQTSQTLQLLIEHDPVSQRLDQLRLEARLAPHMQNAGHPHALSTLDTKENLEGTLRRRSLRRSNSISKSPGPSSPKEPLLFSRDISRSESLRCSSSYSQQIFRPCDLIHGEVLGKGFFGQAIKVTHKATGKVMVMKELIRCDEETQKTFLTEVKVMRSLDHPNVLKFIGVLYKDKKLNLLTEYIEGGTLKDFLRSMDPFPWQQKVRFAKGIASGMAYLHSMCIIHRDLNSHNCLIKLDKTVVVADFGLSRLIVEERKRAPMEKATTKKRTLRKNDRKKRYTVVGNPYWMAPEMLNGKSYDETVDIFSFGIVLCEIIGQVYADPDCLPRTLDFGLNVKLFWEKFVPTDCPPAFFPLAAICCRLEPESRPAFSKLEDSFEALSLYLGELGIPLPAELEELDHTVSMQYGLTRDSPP
Experiment [4] addresses Tyrosine-protein kinase ABL2 (Homo sapiens, UniProt P42684).
Also: in the data inactive means no Kd found up to 30 µM.

Tyrosine-protein kinase ABL2, sequence (P42684 whole entry): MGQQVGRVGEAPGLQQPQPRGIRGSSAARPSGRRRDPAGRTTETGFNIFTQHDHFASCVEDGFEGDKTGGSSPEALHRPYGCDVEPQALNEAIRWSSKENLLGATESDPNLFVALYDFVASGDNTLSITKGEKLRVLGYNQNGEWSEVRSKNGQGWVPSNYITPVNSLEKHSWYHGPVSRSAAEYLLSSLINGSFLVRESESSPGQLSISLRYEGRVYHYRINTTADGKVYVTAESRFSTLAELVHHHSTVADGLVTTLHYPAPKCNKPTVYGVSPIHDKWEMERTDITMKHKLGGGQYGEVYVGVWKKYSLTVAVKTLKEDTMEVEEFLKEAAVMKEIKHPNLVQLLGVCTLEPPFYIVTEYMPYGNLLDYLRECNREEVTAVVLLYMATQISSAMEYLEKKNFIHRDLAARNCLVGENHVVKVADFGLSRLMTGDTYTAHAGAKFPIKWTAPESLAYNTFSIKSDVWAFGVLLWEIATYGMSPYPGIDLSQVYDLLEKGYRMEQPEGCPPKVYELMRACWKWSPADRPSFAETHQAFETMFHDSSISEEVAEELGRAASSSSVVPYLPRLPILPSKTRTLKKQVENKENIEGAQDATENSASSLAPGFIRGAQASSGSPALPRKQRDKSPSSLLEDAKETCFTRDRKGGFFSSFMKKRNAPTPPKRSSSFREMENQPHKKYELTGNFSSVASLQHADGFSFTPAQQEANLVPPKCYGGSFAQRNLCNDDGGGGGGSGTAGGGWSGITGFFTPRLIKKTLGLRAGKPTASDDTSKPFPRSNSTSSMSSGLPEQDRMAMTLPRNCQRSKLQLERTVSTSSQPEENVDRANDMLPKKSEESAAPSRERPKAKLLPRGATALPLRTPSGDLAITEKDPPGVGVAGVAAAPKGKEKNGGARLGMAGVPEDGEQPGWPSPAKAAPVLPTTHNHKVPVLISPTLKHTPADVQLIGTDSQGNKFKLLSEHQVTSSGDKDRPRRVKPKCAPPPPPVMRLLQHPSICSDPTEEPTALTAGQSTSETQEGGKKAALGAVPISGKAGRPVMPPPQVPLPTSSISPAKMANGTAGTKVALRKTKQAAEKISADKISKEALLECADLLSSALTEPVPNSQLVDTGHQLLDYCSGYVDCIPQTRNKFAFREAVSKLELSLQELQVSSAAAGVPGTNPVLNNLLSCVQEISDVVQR

What is called Kd is the free concentration of one partner at which half of the binding sites on the other are occupied at equilibrium, for simple one-to-one binding. As to `COc1cccc(Nc2ncnn3ccc(CN4CC[C@@H](N)[C@H](O)C4)c23)c1` [BMS-690514], the Kd at Actin-related protein 2 was > 30 µM (inactive); in experiment [1] it was 0.972 µM (active); at Ephrin type-B receptor 6 it was > 30 µM (inactive); in experiment [2] it was > 30 µM (inactive); in experiment [3] it was > 30 µM (inactive); on LIM domain kinase 2, > 30 µM (inactive). Further, in experiment [4], the equilibrium dissociation constant (Kd) was 0.04 µM (active).

On to `S=C(NCc1ccc2c(c1)OCO2)N1CCN(c2ncnc3c2oc2ccccc23)CC1` [AMUVATINIB], for which the Kd (on Actin-related protein 2; in experiment [1]; at Ephrin type-B receptor 6; in experiment [2]; in experiment [3]; at LIM domain kinase 2) was > 30 µM (inactive) each time. Besides, the Kd in experiment [4] is > 30 µM (inactive).

In the case of `C=CC(=O)Nc1cc(Nc2nccc(-c3cn(C)c4ccccc34)n2)c(OC)cc1N(C)CCN(C)C` [OSIMERTINIB], the Kd (at Actin-related protein 2; in experiment [1]; at Ephrin type-B receptor 6; in experiment [2]; in experiment [3]; on LIM domain kinase 2) was > 30 µM (inactive) in each case. The Kd in experiment [4] was > 30 µM (inactive).

On to `Cn1cc(-c2[nH]c3cc(NC(=O)[C@H](N)C4CCCCC4)cc4c3c2C=NNC4=O)cn1`, for which the Kd is > 30 µM (inactive) at Actin-related protein 2; 2.19 µM (active) in experiment [1]; 1.53 µM at Ephrin type-B receptor 6; > 30 µM (inactive) in experiment [2]; > 30 µM (inactive) in experiment [3]; 0.205 µM (active) on LIM domain kinase 2. Moreover, the Kd in experiment [4] was 1.37 µM (active).

For the molecule `COCCN1CCN(Cc2ccc(-c3n[nH]c4c3C(=O)c3c(NC(=O)NN5CCOCC5)cccc3-4)cc2)CC1` [RGB-286638], the Kd at Actin-related protein 2 was > 30 µM (inactive); in experiment [1], 0.535 µM (active); on Ephrin type-B receptor 6 it was > 30 µM (inactive); in experiment [2], > 30 µM (inactive); in experiment [3], > 30 µM (inactive); at LIM domain kinase 2, > 30 µM (inactive). The Kd in experiment [4] was > 30 µM (inactive).

For `C[C@@H]1COC(Nc2ccc3ncnc(Nc4ccc(OCc5nccs5)c(Cl)c4)c3c2)=N1` [VARLITINIB], the Kd (on Actin-related protein 2; in experiment [1]; on Ephrin type-B receptor 6; in experiment [2]; in experiment [3]; on LIM domain kinase 2) was > 30 µM (inactive) each time. In addition, the Kd in experiment [4] was > 30 µM (inactive).

With `O=C(NC[C@H](O)CO)c1ccncc1Nc1ccc(I)cc1F` [PIMASERTIB], the Kd (on Actin-related protein 2; in experiment [1]; at Ephrin type-B receptor 6; in experiment [2]; in experiment [3]; on LIM domain kinase 2) was > 30 µM (inactive) throughout. Besides, the Kd in experiment [4] was > 30 µM (inactive).

In the case of `CCc1cc2c(cc1N1CCC(N3CCOCC3)CC1)C(C)(C)c1[nH]c3cc(C#N)ccc3c1C2=O` [ALECTINIB], the Kd (on Actin-related protein 2; in experiment [1]; on Ephrin type-B receptor 6; in experiment [2]; in experiment [3]; on LIM domain kinase 2) was > 30 µM (inactive) throughout. Besides, the Kd in experiment [4] is > 30 µM (inactive).

With `Cn1c(=O)n(-c2ccc(C(C)(C)C#N)cc2)c2c3cc(-c4cnc5ccccc5c4)ccc3ncc21` [DACTOLISIB], the Kd (at Actin-related protein 2; in experiment [1]; on Ephrin type-B receptor 6; in experiment [2]; in experiment [3]; on LIM domain kinase 2) was > 30 µM (inactive) in each case. In addition, the Kd in experiment [4] was > 30 µM (inactive).

As to `Cc1c(NC(=O)OC[C@@H]2COCCN2)cn2ncnc(Nc3ccc4c(cnn4Cc4cccc(F)c4)c3)c12` [AC-480], the Kd on Actin-related protein 2 was > 30 µM (inactive); in experiment [1] it was 5.93 µM; at Ephrin type-B receptor 6, > 30 µM (inactive); in experiment [2], > 30 µM (inactive); in experiment [3] it was > 30 µM (inactive); on LIM domain kinase 2, > 30 µM (inactive). For the same molecule, the Kd in experiment [4] is > 30 µM (inactive).

Turning to `COc1cc(Nc2ncc(F)c(Nc3ccc4c(n3)N(COP(=O)(O)O)C(=O)C(C)(C)O4)n2)cc(OC)c1OC` [FOSTAMATINIB], the Kd (at Actin-related protein 2; in experiment [1]; on Ephrin type-B receptor 6; in experiment [2]; in experiment [3]; at LIM domain kinase 2) was > 30 µM (inactive) throughout. Further, the Kd in experiment [4] is > 30 µM (inactive).

`CN1CCN(c2nc(C3=C(c4c[nH]c5ccccc45)C(=O)NC3=O)c3ccccc3n2)CC1` [SOTRASTAURIN]: the Kd (at Actin-related protein 2; in experiment [1]; on Ephrin type-B receptor 6; in experiment [2]; in experiment [3]; at LIM domain kinase 2) was > 30 µM (inactive) each time. Further, the Kd in experiment [4] was > 30 µM (inactive).

As to `CC(C)CC(=O)Nc1[nH]nc2c1CN(C(=O)C1CCN(C)CC1)C2(C)C` [PHA-793887], the Kd (on Actin-related protein 2; in experiment [1]; at Ephrin type-B receptor 6; in experiment [2]; in experiment [3]; at LIM domain kinase 2) was > 30 µM (inactive) throughout. The Kd in experiment [4] is > 30 µM (inactive).
